Assay results taken from ChEMBL document CHEMBL1926642, “Relevance of the C-5 position to schweinfurthin induced cytotoxicity” (2011).

Key:
Type in all cases: functional
COLO 205 = test: Growth inhibition of human COLO205 cells after 48 hrs by sulforhodamine B assay; conditions: COLO 205, 48 h; for TGI: read-out: pTGI (converted)
UO-31 = test: Growth inhibition of human UO31 cells after 48 hrs by sulforhodamine B assay; conditions: UO-31, 48 h; for TGI: read-out: pTGI (converted)
OVCAR-8 = test: Growth inhibition of human OVCAR8 cells after 48 hrs by sulforhodamine B assay; conditions: OVCAR-8, 48 h; for TGI: read-out: pTGI (converted)
NCI/ADR-RES = test: Growth inhibition of human NCI/ADR-RES cells after 48 hrs by sulforhodamine B assay; conditions: for TGI: read-out: pTGI (converted)
EKVX = test: Growth inhibition of human EKVX cells after 48 hrs by sulforhodamine B assay; conditions: for TGI: read-out: pTGI (converted)
SF-268 = test: Growth inhibition of human SF268 cells after 48 hrs by sulforhodamine B assay; conditions: SF-268, 48 h; for TGI: read-out: pTGI (converted)
Malme-3M = test: Growth inhibition of human MALME-3M cells after 48 hrs by sulforhodamine B assay; conditions: for TGI: read-out: pTGI (converted)
CCRF-CEM = test: Growth inhibition of human CCRF-CEM cells after 48 hrs by sulforhodamine B assay; conditions: for TGI: read-out: pTGI (converted)
SNB-19 = test: Growth inhibition of human SNB19 cells after 48 hrs by sulforhodamine B assay; conditions: SNB-19, 48 h; for TGI: read-out: pTGI (converted)
MOLT-4 = test: Growth inhibition of human MOLT4 cells after 48 hrs by sulforhodamine B assay; conditions: MOLT-4, 48 h; for TGI: read-out: pTGI (converted)
HOP-62 = test: Growth inhibition of human HOP62 cells after 48 hrs by sulforhodamine B assay; conditions: HOP-62, 48 h; for TGI: read-out: pTGI (converted)
LOX IMVI = test: Growth inhibition of human LOXIMVI cells after 48 hrs by sulforhodamine B assay; conditions: for TGI: read-out: pTGI (converted)
U-251 = test: Growth inhibition of human U251 cells after 48 hrs by sulforhodamine B assay; conditions: U-251, 48 h; for TGI: read-out: pTGI (converted)
RXF 393 = test: Growth inhibition of human RXF393 cells after 48 hrs by sulforhodamine B assay; conditions: RXF 393, 48 h; for TGI: read-out: pTGI (converted)
UACC-62 = test: Growth inhibition of human UACC62 cells after 48 hrs by sulforhodamine B assay; conditions: UACC-62, 48 h; for TGI: read-out: pTGI (converted)
MCF7 = test: Growth inhibition of human MCF7 cells after 48 hrs by sulforhodamine B assay; conditions: MCF7, 48 h
HT-29 = test: Growth inhibition of human HT-29 cells after 48 hrs by sulforhodamine B assay; conditions: HT-29, 48 h; for TGI: read-out: pTGI (converted)
HCC 2998 = test: Growth inhibition of human HCC2998 cells after 48 hrs by sulforhodamine B assay; conditions: HCC 2998, 48 h; for TGI: read-out: pTGI (converted)
M14 = test: Growth inhibition of human M14 cells after 48 hrs by sulforhodamine B assay; conditions: M14, 48 h; for TGI: read-out: pTGI (converted)
ACHN = test: Growth inhibition of human ACHN cells after 48 hrs by sulforhodamine B assay; conditions: for TGI: read-out: pTGI (converted)
IGROV-1 = test: Growth inhibition of human IGROV1 cells after 48 hrs by sulforhodamine B assay; conditions: IGROV-1, 48 h; for TGI: read-out: pTGI (converted)
HCT-116 = test: Growth inhibition of human HCT116 cells after 48 hrs by sulforhodamine B assay; conditions: HCT-116, 48 h; for TGI: read-out: pTGI (converted)
HOP-92 = test: Growth inhibition of human HOP92 cells after 48 hrs by sulforhodamine B assay; conditions: HOP-92, 48 h; for TGI: read-out: pTGI (converted)
MDA-MB-468 = test: Growth inhibition of human MDA-MB-468 cells after 48 hrs by sulforhodamine B assay; conditions: MDA-MB-468, 48 h; for TGI: read-out: pTGI (converted)
NCI-H522 = test: Growth inhibition of human NCI-H522 cells after 48 hrs by sulforhodamine B assay; conditions: NCI-H522, 48 h; for TGI: read-out: pTGI (converted)
SF-295 = test: Growth inhibition of human SF295 cells after 48 hrs by sulforhodamine B assay; conditions: SF-295, 48 h; for TGI: read-out: pTGI (converted)
DU-145 = test: Growth inhibition of human DU145 cells after 48 hrs by sulforhodamine B assay; conditions: DU-145, 48 h

COc1cc(/C=C/c2cc(F)c3c(c2)C[C@@H]2C(C)(C)[C@H](O)CC[C@@]2(C)O3)cc(O)c1C/C=C(\C)CCC=C(C)C
GI50 (COLO 205): 12 µM
LC50 (COLO 205): 55 µM
TGI (COLO 205): 25.7 µM
GI50 (UO-31): 2.51 µM
LC50 (UO-31): 27.5 µM
TGI (UO-31): 6.46 µM
GI50 (OVCAR-8): 4.37 µM
LC50 (OVCAR-8): 50.1 µM
TGI (OVCAR-8): 16.2 µM
GI50 (NCI/ADR-RES): 3.89 µM
LC50 (NCI/ADR-RES): 50.1 µM
TGI (NCI/ADR-RES): 14.1 µM
GI50 (EKVX): 11.7 µM
LC50 (50% lethal concentration) (EKVX): 91.2 µM
TGI (EKVX): 33.1 µM
GI50 (SF-268): 10.5 µM
LC50 (SF-268): 63.1 µM
TGI (SF-268): 25.7 µM
GI50 (Malme-3M): 14.8 µM
LC50 (Malme-3M): 89.1 µM
TGI (Malme-3M): 36.3 µM
GI50 (CCRF-CEM): 1.86 µM
LC50 (CCRF-CEM): > 100 µM
TGI (CCRF-CEM): 4.37 µM
GI50 (SNB-19): 12.6 µM
LC50 (SNB-19): 55 µM
TGI (SNB-19): 26.3 µM
GI50 (MOLT-4): 2.04 µM
LC50 (MOLT-4): > 100 µM
TGI (MOLT-4): 6.46 µM
GI50 (HOP-62): 7.41 µM
LC50 (HOP-62): 44.7 µM
TGI (HOP-62): 20 µM
GI50 (LOX IMVI): 1.38 µM
LC50 (LOX IMVI): 6.17 µM
TGI (LOX IMVI): 2.88 µM
GI50 (U-251): 2.04 µM
LC50 (U-251): 15.8 µM
TGI (U-251): 5.01 µM
GI50 (RXF 393): 1.82 µM
LC50 (50% lethal concentration) (RXF 393): 10 µM
TGI (RXF 393): 4.27 µM
GI50 (UACC-62): 14.1 µM
LC50 (50% lethal concentration) (UACC-62): 63.1 µM
TGI (UACC-62): 29.5 µM
GI50 (MCF7): 13.8 µM
LC50 (MCF7): 64.6 µM
TGI (MCF7; read-out: pTGI (converted)): 30.2 µM
GI50 (HT-29): 2.57 µM
LC50 (concentration killing 50% of cells) (HT-29): 41.7 µM
TGI (HT-29): 11 µM
GI50 (HCC 2998): 12.9 µM
LC50 (HCC 2998): 56.2 µM
TGI (HCC 2998): 26.9 µM
GI50 (M14): 12.9 µM
LC50 (M14): 57.5 µM
TGI (M14): 26.9 µM
GI50 (ACHN): 11.7 µM
LC50 (ACHN): 58.9 µM
TGI (ACHN): 26.3 µM
GI50 (IGROV-1): 2.95 µM
LC50 (IGROV-1): 53.7 µM
TGI (IGROV-1): 7.94 µM
GI50 (HCT-116): 2.45 µM
LC50 (HCT-116): 20.4 µM
TGI (HCT-116): 6.03 µM
GI50 (HOP-92): 3.39 µM
LC50 (HOP-92): 57.5 µM
TGI (HOP-92): 12.6 µM
GI50 (MDA-MB-468): 6.61 µM
LC50 (MDA-MB-468): 45.7 µM
TGI (MDA-MB-468): 20 µM
GI50 (NCI-H522): 2.19 µM
LC50 (NCI-H522): 30.9 µM
TGI (NCI-H522): 6.92 µM
LC50 (SF-295): 69.2 µM
GI50 (SF-295; read-out: GI50): 5.01 µM
GI50 (SF-295; read-out: pGI50 (converted)): 5.01 µM
TGI (SF-295): 21.4 µM

COCOc1cc(/C=C/c2cc(C=O)c3c(c2)C[C@@H]2C(C)(C)[C@H](O)CC[C@@]2(C)O3)cc(OC)c1C/C=C(\C)CCC=C(C)C
GI50 (COLO 205): 3.47 µM
LC50 (COLO 205): 51.3 µM
TGI (COLO 205): 9.33 µM
GI50 (UO-31): 4.07 µM
LC50 (UO-31): > 100 µM
TGI (UO-31): > 100 µM
GI50 (OVCAR-8): 17 µM
LC50 (OVCAR-8): > 100 µM
TGI (OVCAR-8): 61.7 µM
GI50 (NCI/ADR-RES): 21.4 µM
LC50 (NCI/ADR-RES): > 100 µM
TGI (NCI/ADR-RES): > 100 µM
GI50 (EKVX): 5.5 µM
LC50 (50% lethal concentration) (EKVX): > 100 µM
TGI (EKVX): > 100 µM
GI50 (SF-268): 11 µM
LC50 (SF-268): > 100 µM
TGI (SF-268): 85.1 µM
GI50 (Malme-3M): 7.94 µM
LC50 (Malme-3M): > 100 µM
TGI (Malme-3M): 95.5 µM
GI50 (CCRF-CEM): 4.37 µM
LC50 (CCRF-CEM): > 100 µM
TGI (CCRF-CEM): > 100 µM
GI50 (SNB-19): 16.6 µM
LC50 (SNB-19): > 100 µM
TGI (SNB-19): > 100 µM
GI50 (MOLT-4): 2.82 µM
LC50 (MOLT-4): > 100 µM
TGI (MOLT-4): 13.2 µM
GI50 (HOP-62): 4.9 µM
LC50 (HOP-62): > 100 µM
TGI (HOP-62): > 100 µM
GI50 (LOX IMVI): 3.98 µM
LC50 (LOX IMVI): 44.7 µM
TGI (LOX IMVI): 15.8 µM
GI50 (U-251): 1.74 µM
LC50 (U-251): > 100 µM
TGI (U-251): 60.3 µM
GI50 (RXF 393): 0.309 µM
LC50 (50% lethal concentration) (RXF 393): 12.3 µM
TGI (RXF 393): 1.32 µM
GI50 (UACC-62): 4.07 µM
LC50 (50% lethal concentration) (UACC-62): > 100 µM
TGI (UACC-62): > 100 µM
GI50 (HT-29): 4.37 µM
LC50 (concentration killing 50% of cells) (HT-29): > 100 µM
TGI (HT-29): > 100 µM
GI50 (HCC 2998): 12.3 µM
LC50 (HCC 2998): > 100 µM
TGI (HCC 2998): > 100 µM
GI50 (M14): 11.2 µM
LC50 (M14): > 100 µM
TGI (M14): 64.6 µM
GI50 (ACHN): 7.94 µM
LC50 (ACHN): > 100 µM
TGI (ACHN): > 100 µM
GI50 (IGROV-1): 9.77 µM
LC50 (IGROV-1): > 100 µM
TGI (IGROV-1): > 100 µM
GI50 (HCT-116): 6.61 µM
LC50 (HCT-116): > 100 µM
TGI (HCT-116): 35.5 µM
GI50 (HOP-92): 15.8 µM
LC50 (HOP-92): > 100 µM
TGI (HOP-92): > 100 µM
GI50 (MDA-MB-468): 4.9 µM
LC50 (MDA-MB-468): > 100 µM
TGI (MDA-MB-468): 46.8 µM
GI50 (NCI-H522): 18.2 µM
LC50 (NCI-H522): > 100 µM
TGI (NCI-H522): > 100 µM
GI50 (DU-145): 13.5 µM
LC50 (DU-145): > 100 µM
TGI (DU-145; read-out: pTGI (converted)): > 100 µM
LC50 (SF-295): > 100 µM
GI50 (SF-295; read-out: GI50): 1.2 µM
GI50 (SF-295; read-out: pGI50 (converted)): 1.2 µM
TGI (SF-295): 4.37 µM
